The text below walks through data of patent US6110939A, “(Benzimidazolyl- and imidazopyridinyl) containing 1-(1,2-disubstituted piperidinyl) derivatives” (Janssen Pharmaceutica N.V., priority 1995, dated 2000).

The test system of the first assay is substance P induced relaxation of the pig coronary arteries. The experiment in a line: Antagonism of substance P induced relaxation of the pig coronary arteries. As to conditions: Sus scrofa, 0.5 h; test compound 3 × 10^-8; response to 10^-9 M substance P; 30 min incubation. The format is cell-based. The protocol: Antagonism of substance P induced relaxation of the pig coronary arteries
Segments of coronary arteries taken from pigs (killed by injection of an overdose of sodium pentobarbital) were inverted and mounted for recording of isometric tension in organ baths (volume 20 ml) with the endothelium at the outside. The preparations were bathed in Krebs - Henseleit solution. The solution was kept at 37° C. and gassed with a mixture of O2 /CO2 (95/5). After stabilisation of the preparations, prostaglandin F2α (10^-5 M) was administered to induce a contraction. This was repeated until contractile responses became stable. Then prostaglandin F2α was again administered and substance P (3×10^-10 M and 10^-9 M cumulatively) was added. […] After washing away the agonists, a known concentration of a compound of formula (I) was added. After an incubation period of 30 minutes, prostaglandin F2α (10^-5 M) and the same concentrations of substance P as described above were again administered in the presence of the compound to be tested.
Compound `CCOCCn1c(N[C@@H]2CCN(C(=O)c3cc(C(F)(F)F)cc(C(F)(F)F)c3)[C@@H](Cc3ccc(F)c(F)c3)C2)nc2ccccc21` (relative stereo) [Compound 147] had an inhibition at 0.03 µM of 95.6%. Still for that read-out and setting: the figure for `CCOCCn1c(N[C@@H]2CCN(C(=O)c3cc(C(F)(F)F)cc(C(F)(F)F)c3)[C@H](Cc3ccc(F)c(F)c3)C2)nc2ccccc21` (relative stereo) [Compound 148] is 100%; for `Cc1ccc(Cn2c(C(O)C3CCN([C@H]4CCN(C(=O)c5cc(C(F)(F)F)cc(C(F)(F)F)c5)[C@@H](Cc5ccccc5)C4)CC3)nc3ccccc32)o1` (stereo partly shown) [Compound 21] it is 95.8%; for `Cc1ccc(Cn2c(NC3CCN([C@@H]4CCN(C(=O)c5cc(C(F)(F)F)cc(C(F)(F)F)c5)[C@H](Cc5ccccc5)C4)C3)nc3cccnc32)o1` (stereo partly shown) [Compound 30] it is 87.5%. The same measure, in the same setting: the figure for `CCOCCn1c(NC2CCCN(C(=O)c3cc(C(F)(F)F)cc(C(F)(F)F)c3)C(Cc3ccccc3)C2)nc2ccccc21` (stereo not shown) [Compound 149] is 12.7%; for `CCOCCn1c(NC2CCC(Cc3ccccc3)N(C(=O)c3cc(C(F)(F)F)cc(C(F)(F)F)c3)CC2)nc2ccccc21` (stereo not shown) [Compound 150] it is 98.1%.

Still in this assay, the particulars now being: Sus scrofa, 0.5 h; test compound 3 × 10^-9; response to 10^-9 M substance P; 30 min incubation.
The compound `Cc1ncc(Cn2c(NC3CCN([C@@H]4CCN(C(=O)c5cccs5)[C@@H](Cc5ccccc5)C4)CC3)nc3ccccc32)o1` (relative stereo) [Compound 56] gave an inhibition at 0.003 µM of 8.7%. Still for that read-out and setting: the figure for `Cc1ncc(Cn2c(NC3CCN([C@@H]4CCN(C(=O)c5sc(C)nc5C)[C@H](Cc5ccccc5)C4)CC3)nc3ccccc32)o1` (relative stereo) [Compound 65] is 9.7%; for `CCOCCn1c(N[C@@H]2CCN(C(=O)c3cc(C(F)(F)F)ccc3C(F)(F)F)[C@@H](Cc3ccc(Cl)cc3)C2)nc2ccccc21` (relative stereo) [Compound 144] it is 88.4%.

Regarding `CCOCCn1c(N[C@@H]2CCN(C(=O)c3cc(C(F)(F)F)ccc3C(F)(F)F)[C@H](Cc3ccc(Cl)cc3)C2)nc2ccccc21` (relative stereo) [Compound 145], testing at 0.003 µM gave an inhibition of 92.2%. As to `CCOCCn1c(N[C@@H]2CCN(C(=O)c3cc(C(F)(F)F)cc(C(F)(F)F)c3)[C@H](Cc3ccc(C(F)(F)F)cc3)C2)nc2ccccc21` (relative stereo) [Compound 146], at 0.003 µM the inhibition was 51.8%. On the same count and under the same terms, the figure for `Cc1ccc(Cn2c(C(O)C3CCN([C@H]4CCN(C(=O)c5cc(C(F)(F)F)cc(C(F)(F)F)c5)[C@@H](Cc5ccccc5)C4)CC3)nc3ccccc32)o1` (stereo partly shown) [Compound 22] is 89.4%; for `Cc1ccc(Cn2c(C(O)C3CCN(C4CCN(C(=O)c5cc(C(F)(F)F)cc(C(F)(F)F)c5)C(Cc5ccccc5)C4)CC3)nc3ccccc32)o1` (stereo not shown) [Compound 23] it is 94.3%; for `Cc1ccc(Cn2c(NC3CCN([C@@H]4CCN(C(=O)c5cc(C(F)(F)F)cc(C(F)(F)F)c5)[C@@H](Cc5ccccc5)C4)C3)nc3cccnc32)o1` (stereo partly shown) [Compound 31] it is 90.6%.

The assay is the same for the next values; noted with them: test compound 3 × 10^-8; response to 10^-9 M substance P; 30 min incubation.
For the compound `CCOCCn1c(NC2CCN(C3CCN(C(=O)c4cc(C(F)(F)F)cc(C(F)(F)F)c4)C(Cc4ccccc4)C3)C(Cc3ccccc3)C2)nc2ccccc21` (stereo not drawn) [Compound 13, 2α,4α-trans-1-[3,5-bis(trifluoromethyl)benzoyl]-4-[4-[[1-(2-ethoxyethyl)-1H-benzimidazol-2-yl]amino]-2-(phenylmethyl)-1-piperidinyl]-2-(phenylmethyl)piperidine], the “% inhibition” value is listed as 19.9%. Turning to `CCOCCn1c(NC2CCN(C3CCN(C(=O)c4cc(C(F)(F)F)cc(C(F)(F)F)c4)C(Cc4ccccc4)C3)C(Cc3ccccc3)C2)nc2ccccc21` (stereo not drawn) [Compound 14, 2α,4β-trans-1-[3,5-bis(trifluoromethyl)benzoyl]-4-[4-[[1-(2-ethoxyethyl)-1H-benzimidazol-2-yl]amino]-2-(phenylmethyl)-1-piperidinyl]-2-(phenylmethyl)piperidine], the “% inhibition” value is listed as 53.3%.

Broadly, the inhibition is the share of the control response that was lost under treatment. The % inhibition is the drop in the measured response relative to a control, in per cent. The low end stands for a weak effect, the high end for a strong effect.
